Experimental data as given in ChEMBL document CHEMBL5042556, “Lead Optimization to Advance Protease-Activated Receptor-1 Antagonists in Early Discovery” (J Med Chem, 2022).

Columns and labels:
[1] = target: T1, Voltage-gated inwardly rectifying potassium channel KCNH2 (Homo sapiens, UniProt Q12809); test: Inhibition of [35S]MK-499 binding to hERG expressed in HEK293 cells; type: toxicity, cell-based
[2] = target: T2, Proteinase-activated receptor 1 (Homo sapiens, UniProt P25116); test: Antagonist activity at human PAR-1 expressed in HEK293 cells assessed as reduction in TRAP induced calcium signal at 3 uM by FLIPR analysis; type: functional, cell-based
T2 sequence (P25116 whole entry): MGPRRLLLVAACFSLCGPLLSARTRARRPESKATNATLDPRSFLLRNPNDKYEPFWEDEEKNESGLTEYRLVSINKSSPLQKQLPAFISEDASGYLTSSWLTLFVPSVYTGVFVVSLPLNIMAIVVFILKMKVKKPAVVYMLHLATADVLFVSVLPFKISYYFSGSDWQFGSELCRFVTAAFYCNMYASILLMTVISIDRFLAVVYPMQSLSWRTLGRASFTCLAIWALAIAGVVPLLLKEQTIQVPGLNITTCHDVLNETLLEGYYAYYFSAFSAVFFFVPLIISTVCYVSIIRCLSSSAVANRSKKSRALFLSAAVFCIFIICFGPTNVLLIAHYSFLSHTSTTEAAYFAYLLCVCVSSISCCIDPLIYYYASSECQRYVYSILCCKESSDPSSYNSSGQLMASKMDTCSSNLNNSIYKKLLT

[3] = MRT in cynomolgus monkey at 0.3 mg/kg, po; type: ADME, organism-based, Macaca fascicularis; conditions: in vivo
[4] = MRT in rat at 1 mg/kg, iv; type: ADME, organism-based; conditions: in vivo
P-glycoprotein = test: Effect on rat P-glycoprotein expressed in MDCK cells assessed as efflux ratio of apparent permeability across basolateral to apical side over apical to basolateral side (reference value: 0.6 to 0.8); type: ADME, cell-based, MDCKII-LE; conditions: MDCK-MDR1
[5] = Clearance in intravenously dosed cynomolgus monkey; type: ADME, organism-based, Macaca fascicularis; conditions: in vivo, iv
[6] = target: T1, Voltage-gated inwardly rectifying potassium channel KCNH2; test: Inhibition of [35S]MK-499 binding to hERG expressed in HEK293 cells at 60 uM; type: toxicity, cell-based
[7] = Clearance in dog hepatocyte measured per 10^6 cells; type: ADME, cell-based, Canis lupus familiaris; conditions: hepatocytes
[8] = MRT in intravenously dosed cynomolgus monkey; type: ADME, organism-based, Macaca fascicularis; conditions: in vivo, iv
[9] = Oral bioavailability in dog; type: ADME, organism-based, Canis lupus familiaris; conditions: in vivo
[10] = Unbound clearance in intravenously dosed dog; type: ADME, organism-based, Canis lupus familiaris; conditions: in vivo, iv
[11] = Unbound clearance in rat at 3 mg/kg, iv; type: ADME, organism-based; conditions: in vivo
[12] = Volume of distribution in rat at 0.3 mg/kg, iv; type: ADME, organism-based; conditions: in vivo
[13] = Clearance in rat at 3 mg/kg, iv; type: ADME, organism-based; conditions: in vivo
[14] = Clearance in rat hepatocyte measured per 10^6 cells; type: ADME, cell-based; conditions: hepatocytes
[15] = Clearance in mouse hepatocyte measured per 10^6 cells; type: ADME, cell-based; conditions: hepatocytes
[16] = Oral bioavailability in rat; type: ADME, organism-based; conditions: in vivo
[17] = Ex vivo inhibition of PAR-1 in cynomolgus monkey whole blood assessed as inhibition of TRAP-induced platelet aggregation at 1 mg/kg, po measured after 24 hrs; type: functional; conditions: Macaca fascicularis
[18] = Apparent permeability in MDCKII-LE cells; type: ADME, cell-based, Canis lupus familiaris; conditions: dog, MDCK
[19] = Plasma protein binding in dog assessed as unbound fraction; type: ADME, cell-free, Canis lupus familiaris
[20] = Oral bioavailability in cynomolgus monkey; type: ADME, organism-based, Macaca fascicularis; conditions: in vivo
[21] = Unbound clearance in intravenously dosed cynomolgus monkey; type: ADME, organism-based, Macaca fascicularis; conditions: in vivo, iv
P-glycoprotein (ABCB1) = P-glycoprotein (ABCB1) (Homo sapiens, UniProt P08183); test: Effect on human P-glycoprotein expressed in MDCK cells assessed as efflux ratio of apparent permeability across basolateral to apical side over apical to basolateral side (reference value: 0.6 to 0.8); type: ADME, cell-based, MDCKII-LE; conditions: MDCK-MDR1
Chain of P-glycoprotein (ABCB1) (P08183 whole entry): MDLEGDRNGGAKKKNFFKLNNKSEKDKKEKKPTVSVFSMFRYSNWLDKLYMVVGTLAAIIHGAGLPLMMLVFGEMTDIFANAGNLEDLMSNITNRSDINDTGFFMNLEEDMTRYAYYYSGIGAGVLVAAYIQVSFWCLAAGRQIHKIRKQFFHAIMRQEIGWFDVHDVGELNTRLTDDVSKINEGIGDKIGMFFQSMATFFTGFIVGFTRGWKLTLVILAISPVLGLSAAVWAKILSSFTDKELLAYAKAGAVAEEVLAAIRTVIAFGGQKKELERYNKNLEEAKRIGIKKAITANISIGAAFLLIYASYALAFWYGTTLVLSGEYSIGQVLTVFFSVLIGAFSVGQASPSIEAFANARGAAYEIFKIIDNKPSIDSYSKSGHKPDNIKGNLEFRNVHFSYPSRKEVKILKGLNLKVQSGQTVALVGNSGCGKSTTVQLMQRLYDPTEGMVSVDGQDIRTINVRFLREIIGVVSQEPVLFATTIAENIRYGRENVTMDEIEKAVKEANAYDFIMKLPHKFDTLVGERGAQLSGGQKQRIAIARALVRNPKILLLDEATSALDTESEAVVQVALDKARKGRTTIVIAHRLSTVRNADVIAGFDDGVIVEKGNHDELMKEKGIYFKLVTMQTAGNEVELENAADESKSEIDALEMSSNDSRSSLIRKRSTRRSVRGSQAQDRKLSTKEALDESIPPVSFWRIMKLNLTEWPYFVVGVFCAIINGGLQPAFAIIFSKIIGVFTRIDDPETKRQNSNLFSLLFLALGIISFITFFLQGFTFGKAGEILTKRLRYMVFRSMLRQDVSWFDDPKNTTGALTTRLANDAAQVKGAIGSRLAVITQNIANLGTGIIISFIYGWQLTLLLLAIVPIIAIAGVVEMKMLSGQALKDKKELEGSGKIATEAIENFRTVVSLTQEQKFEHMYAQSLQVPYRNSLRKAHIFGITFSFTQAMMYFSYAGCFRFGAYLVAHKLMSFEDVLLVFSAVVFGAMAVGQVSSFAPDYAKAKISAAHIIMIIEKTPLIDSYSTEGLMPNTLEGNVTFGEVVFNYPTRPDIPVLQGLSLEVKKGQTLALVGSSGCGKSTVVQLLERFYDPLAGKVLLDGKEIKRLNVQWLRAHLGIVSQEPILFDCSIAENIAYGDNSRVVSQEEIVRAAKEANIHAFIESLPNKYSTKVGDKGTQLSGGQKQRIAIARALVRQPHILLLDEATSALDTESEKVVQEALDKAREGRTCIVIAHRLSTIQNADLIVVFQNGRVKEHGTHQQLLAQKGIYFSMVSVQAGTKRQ

[22] = Plasma protein binding in rat assessed as unbound fraction; type: ADME, cell-free
[23] = Clearance in human hepatocyte measured per 10^6 cells; type: ADME, cell-based; conditions: hepatocytes
[24] = Volume of distribution in intravenously dosed cynomolgus monkey; type: ADME, organism-based, Macaca fascicularis; conditions: in vivo, iv
[25] = MRT in intravenously dosed dog; type: ADME, organism-based, Canis lupus familiaris; conditions: in vivo, iv
[26] = Plasma protein binding in cynomolgus monkey assessed as unbound fraction; type: ADME, cell-free, Macaca fascicularis
[27] = Unbound volume of distribution in intravenously dosed cynomolgus monkey; type: ADME, organism-based, Macaca fascicularis; conditions: in vivo, iv
[28] = MRT in rat at 3 mg/kg, iv; type: ADME, organism-based; conditions: in vivo
[29] = Ex vivo inhibition of PAR-1 in cynomolgus monkey whole blood assessed as inhibition of TRAP-induced platelet aggregation at 0.3 mg/kg, po measured after 24 hrs; type: functional; conditions: Macaca fascicularis
[30] = Unbound volume of distribution in rat at 3 mg/kg, iv; type: ADME, organism-based; conditions: in vivo
[31] = Clearance in intravenously dosed dog; type: ADME, organism-based, Canis lupus familiaris; conditions: in vivo, iv
[32] = Unbound volume of distribution in intravenously dosed dog; type: ADME, organism-based, Canis lupus familiaris; conditions: in vivo, iv
[33] = MRT in cynomolgus monkey at 0.3 mg/kg, iv; type: ADME, organism-based, Macaca fascicularis; conditions: in vivo

T1 sequence (Q12809 whole entry): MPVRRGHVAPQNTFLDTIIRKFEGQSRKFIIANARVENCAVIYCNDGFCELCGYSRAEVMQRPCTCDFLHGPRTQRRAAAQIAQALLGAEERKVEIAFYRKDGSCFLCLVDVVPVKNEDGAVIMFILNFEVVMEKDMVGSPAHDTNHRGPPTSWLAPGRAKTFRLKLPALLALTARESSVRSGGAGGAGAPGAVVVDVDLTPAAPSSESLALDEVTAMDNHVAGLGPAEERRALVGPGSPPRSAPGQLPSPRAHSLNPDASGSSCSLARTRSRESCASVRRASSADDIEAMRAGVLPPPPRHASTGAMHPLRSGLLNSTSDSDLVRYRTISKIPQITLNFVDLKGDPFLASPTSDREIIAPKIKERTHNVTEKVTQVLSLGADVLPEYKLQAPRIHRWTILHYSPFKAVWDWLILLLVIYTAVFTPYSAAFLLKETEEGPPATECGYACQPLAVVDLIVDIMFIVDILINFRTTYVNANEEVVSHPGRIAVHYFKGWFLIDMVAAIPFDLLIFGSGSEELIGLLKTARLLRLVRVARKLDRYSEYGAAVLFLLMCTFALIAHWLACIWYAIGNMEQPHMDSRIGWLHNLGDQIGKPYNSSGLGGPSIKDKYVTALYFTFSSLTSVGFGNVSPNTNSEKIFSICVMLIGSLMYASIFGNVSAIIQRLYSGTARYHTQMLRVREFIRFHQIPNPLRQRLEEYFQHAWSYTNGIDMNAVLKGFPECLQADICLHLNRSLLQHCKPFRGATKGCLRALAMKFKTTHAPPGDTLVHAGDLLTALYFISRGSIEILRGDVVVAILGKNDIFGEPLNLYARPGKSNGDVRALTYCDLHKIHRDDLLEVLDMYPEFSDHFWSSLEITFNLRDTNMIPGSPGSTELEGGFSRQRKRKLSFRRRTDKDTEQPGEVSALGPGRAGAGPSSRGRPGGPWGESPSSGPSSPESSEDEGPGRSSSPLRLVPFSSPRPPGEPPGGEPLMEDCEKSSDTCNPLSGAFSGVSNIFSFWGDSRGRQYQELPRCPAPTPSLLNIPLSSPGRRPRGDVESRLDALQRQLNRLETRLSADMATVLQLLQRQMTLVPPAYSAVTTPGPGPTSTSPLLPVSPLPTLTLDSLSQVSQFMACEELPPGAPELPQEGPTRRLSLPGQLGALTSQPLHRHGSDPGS

Molecule `C[C@@H]1[C@@H](C)[C@@H]2CNC[C@@]23C(=O)O[C@H](C)[C@H]3[C@H]1/C=C/c1ccc(-c2ccccc2C#N)cn1` has an IC50 [1] of 1300 nM and an IC50 [2] of 14 nM.
In the case of `C[C@H]1OC(=O)[C@@H]2CC3(NC(=O)NC3=O)[C@@H](C)[C@H](c3ccc(-c4cccc(F)c4)cn3)[C@H]12` (stereo partly specified), the IC50 [2] is reported as 178 nM.
In the case of `CC[C@H]1[C@H](/C=C/c2ccc(-c3ccccc3C#N)cn2)[C@@H]2[C@@H](C)OC(=O)[C@]2(O)CC1(F)F`, the IC50 [1] is reported as 17000 nM, the MRT [3] is reported as greater than 20 h and the IC50 [2] is reported as 8 nM. For the same molecule, the MRT [4] was 5.5 h.
In the case of `C[C@H]1[C@H](c2ccc(-c3cccc(F)c3)cn2)[C@@H]2[C@@H](C)OC(=O)[C@@H]2C[C@@H]1C`, the IC50 [2] is reported as 3 nM.
For `CCNC(=O)N1C[C@H]2[C@H](C)[C@@H](C)[C@H](/C=C/c3ccc(-c4ccccc4C#N)cn3)[C@@H]3[C@@H](C)OC(=O)[C@@]32C1`, the IC50 [1] was 9200 nM, the efflux ratio (P-glycoprotein) was greater than 71 and the clearance [5] was 7.7 mL/min/kg. For the same molecule, the IC50 [6] was 9000 nM, the CLint [7] was 11.8 µL/min/1e6 cells and the MRT [8] was 1.8 h. It also gave a bioavailability [9] of 19%, a CL free [10] of 112 mL/min/kg and a CL free [11] of 742 mL/min/kg. The Vd [12] was 1.2 L/kg, the clearance [13] was 46 mL/min/kg and the CLint [14] was 17.2 µL/min/1e6 cells. The CLint [15] was 19.7 µL/min/1e6 cells, the bioavailability [16] was 10% and the inhibition in vivo at 1 mg/kg [17] was 100%. The Papp [18] was 32.3 ×10⁻⁶ cm/s, the fraction unbound [19] was 0.05 and the bioavailability [20] was 13%. It also gave a CL free [21] of 140 mL/min/kg, an efflux ratio (P-glycoprotein (ABCB1)) greater than 65 and a fraction unbound [22] of 0.06. For the same molecule, the CLint [23] was 7.3 µL/min/1e6 cells, the Vd [24] was 0.81 L/kg and the MRT [25] was 6.2 h. The fraction unbound [26] was 0.06, the Vdu [27] was 15 L/kg and the IC50 [2] was 7 nM. For the same molecule, the MRT [28] was 0.44 h, the inhibition in vivo at 0.3 mg/kg [29] was 100% and the Vdu [30] was 19 L/kg. For the same molecule, the clearance [31] was 5.6 mL/min/kg and the Vdu [32] was 42 L/kg.
`CCOC(=O)N1C[C@H]2[C@H](C)[C@@H](C)[C@H](/C=C/c3ccc(-c4ccccc4C#N)cn3)[C@@H]3[C@@H](C)OC(=O)[C@@]32C1` showed an IC50 [1] of 1600 nM and an IC50 [2] of 4 nM.
In the case of `Cc1cccc(-c2ccc(/C=C/[C@@H]3[C@@H]4[C@@H](C)OC(=O)[C@]4(O)CC(F)(F)[C@H]3C)nc2)c1C#N`, the IC50 [1] is reported as 9000 nM, the efflux ratio (P-glycoprotein) is reported as 3.3 and the clearance [5] is reported as 8.6 mL/min/kg. For the same molecule, the IC50 [6] was 9000 nM, the CLint [7] was 41.7 µL/min/1e6 cells and the MRT [8] was 3 h. It also gave a bioavailability [9] of 5%, a CL free [10] of 1238 mL/min/kg and a CL free [11] of 1370 mL/min/kg. It also gave a Vd [12] of 3.1 L/kg, a clearance [13] of 37 mL/min/kg and a CLint [14] of 2.3 µL/min/1e6 cells. For the same molecule, the CLint [15] was 11.4 µL/min/1e6 cells, the bioavailability [16] was 44% and the inhibition in vivo at 1 mg/kg [17] was 100%. It also gave a Papp [18] of 41.9 ×10⁻⁶ cm/s, a fraction unbound [19] of 0.02 and a bioavailability [20] of 57%. The CL free [21] was 344 mL/min/kg, the efflux ratio (P-glycoprotein (ABCB1)) was 1.5 and the fraction unbound [22] was 0.03. For the same molecule, the CLint [23] was 4.3 µL/min/1e6 cells, the Vd [24] was 1.5 L/kg and the MRT [25] was 2.3 h. For the same molecule, the fraction unbound [26] was 0.02, the Vdu [27] was 60 L/kg and the IC50 [2] was 3 nM. It also gave an MRT [33] of 3.2 h, an MRT [28] of 1.4 h and an MRT [4] of 2.2 h. For the same molecule, the inhibition in vivo at 0.3 mg/kg [29] was 100%, the Vdu [30] was 115 L/kg and the clearance [31] was 26 mL/min/kg. The Vdu [32] was 171 L/kg.
